From US20240343704A1, “HALO-SUBSTITUTED AMINO PYRIDINE COMPOUNDS AS INHIBITORS OF THE HAEMATOPOIETIC PROGENITOR KINASE 1 (HPK1)” (priority 2021, published 2024)

Columns and labels:
[1] = target: T1, Recombinant (1-346) HPK1 (h) (Homo sapiens, UniProt Q92918); assay: HPK1 Human STE Kinase Enzymatic Radiometric Assay; assay type: biochemical; conditions: read-out: HPK1 IC50 nM Range*
T1 construct: Recombinant (1-346) HPK1 (h) is incubated with 8 mM MOPS pH 7.0
T1 sequence (Q92918 1-346): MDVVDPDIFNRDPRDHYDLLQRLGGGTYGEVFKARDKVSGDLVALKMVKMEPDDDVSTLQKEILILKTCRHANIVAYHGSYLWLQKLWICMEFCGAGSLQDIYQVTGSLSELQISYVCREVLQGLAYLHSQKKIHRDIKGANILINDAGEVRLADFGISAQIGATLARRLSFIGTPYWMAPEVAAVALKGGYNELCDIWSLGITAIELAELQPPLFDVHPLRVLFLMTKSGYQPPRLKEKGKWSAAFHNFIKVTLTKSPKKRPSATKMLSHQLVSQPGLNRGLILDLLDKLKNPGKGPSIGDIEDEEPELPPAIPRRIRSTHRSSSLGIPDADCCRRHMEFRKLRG
Protocol: A stock solution of 10 mM of test compound is prepared in DMSO. The compound plate was prepared by 3-fold and 9-point serial dilutions. […] The reaction is initiated by The addition of the Mg/ATP mix. After incubation for 40 minutes at RT, the reaction is stopped by the addition of phosphoric acid to a concentration of 0.5%.

Lck (h) = Lck (h) (Homo sapiens, UniProt P06239); assay: Lck Human  Kinase Enzymatic Radiometric Assay; assay type: biochemical; conditions: read-out: Lck IC50 nM Range*
In short: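 Substrate 33P-incorporation measured by scintillation counting after spotting on P30 filtermat and phosphoric acid washes. Human Lck reacted 40 min at RT in 50 mM Tris pH 7.5 with 10 mM MgAcetate, [gamma-33P]-ATP, 250 uM Cdc2 peptide, 0.1 mM EGTA and 0.1 mM Na3VO4.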

Sequence of Lck (h) (P06239 whole entry): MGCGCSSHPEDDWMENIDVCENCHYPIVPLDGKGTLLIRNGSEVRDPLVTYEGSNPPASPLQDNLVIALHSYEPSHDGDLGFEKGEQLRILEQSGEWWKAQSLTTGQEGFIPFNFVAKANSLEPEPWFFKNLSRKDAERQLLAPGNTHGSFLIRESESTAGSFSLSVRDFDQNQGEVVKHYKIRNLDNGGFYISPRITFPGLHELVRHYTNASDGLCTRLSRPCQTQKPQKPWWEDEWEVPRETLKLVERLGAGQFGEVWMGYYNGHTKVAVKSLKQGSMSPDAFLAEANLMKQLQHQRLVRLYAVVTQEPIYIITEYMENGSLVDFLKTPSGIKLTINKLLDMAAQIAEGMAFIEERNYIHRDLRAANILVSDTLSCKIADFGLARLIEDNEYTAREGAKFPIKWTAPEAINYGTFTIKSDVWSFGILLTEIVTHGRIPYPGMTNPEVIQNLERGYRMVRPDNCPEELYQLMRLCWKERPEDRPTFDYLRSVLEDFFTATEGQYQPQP

IC50 [1] [nM] | IC50 (Lck (h)) [nM] | SMILES
11 to 100 | > 1000 | CC(C)[C@@H]1CN(c2ccc(-c3cnc(N)c(-c4ccc5c(c4)CCNC5=O)c3F)c(F)c2)CCO1 [I-6, (R)-6-(2-amino-4-fluoro-5-(2-fluoro-4-(2-isopropylmorpholino)phenyl)pyridin-3-yl)-3,4-dihydroisoquinolin-1(2H)-one]
0.1 to 10 | > 1000 | COCCN1CCN(c2ccc(-c3cc(-c4cc5c(cc4F)C(=O)NCC5)c(N)nc3F)cc2)CC1 [I-212, 6-(2-amino-6-fluoro-5-(4-(4-(2-methoxyethyl)piperazin-1-yl)phenyl)pyridin-3-yl)-7-fluoro-3,4-dihydroisoquinolin-1(2H)-one]
0.1 to 10 | > 1000 | CN(C)C1CCN(c2ccc(-c3cc(-c4ccc5c(c4)CCNC5=O)c(N)nc3F)cc2)C1 (centres unmarked) [I-157, 6-(2-amino-5-(4-(3-(dimethylamino)pyrrolidin-1-yl)phenyl)-6-fluoropyridin-3-yl)-3,4-dihydroisoquinolin-1(2H)-one]
0.1 to 10 | > 1000 | Nc1nc(F)c(-c2ccc(OC3CCN(CC4CC4)CC3)cc2)cc1-c1cc2c(cc1F)C(=O)NCC2 [I-324, 6-(2-amino-5-(4-((1-(cyclopropylmethyl)piperidin-4-yl)oxy)phenyl)-6-fluoropyridin-3-yl)-7-fluoro-3,4-dihydroisoquinolin-1(2H)-one]
11 to 100 | > 1000 | Nc1nc(F)c(-c2ccc(N3CCN(CC(F)(F)F)CC3)c(C(F)(F)F)c2)cc1-c1ccc2c(c1)CCNC2=O [I-202, 6-(2-amino-6-fluoro-5-(4-(4-(2,2,2-trifluoroethyl)piperazin-1-yl)-3-(trifluoromethyl)phenyl)pyridin-3-yl)-3,4-dihydroisoquinolin-1(2H)-one]
0.1 to 10 | > 1000 | CCN1CCC(c2ccc(-c3cc(-c4ccc5c(c4)CCNC5=O)c(N)nc3F)cc2)CC1 [I-53, 6-(2-amino-5-(4-(1-ethylpiperidin-4-yl)phenyl)-6-fluoropyridin-3-yl)-3,4-dihydroisoquinolin-1(2H)-one]
0.1 to 10 | > 1000 | CC(C)N1CCN(c2ccc(-c3cc(-c4cc(F)c5c(=O)[nH]cnc5c4)c(N)nc3F)cc2)CC1 [I-405, 7-(2-amino-6-fluoro-5-(4-(4-isopropylpiperazin-1-y)phenyl)pyridin-3-yl)-5-fluoroquinazolin-4(3H)-one]
11 to 100 | > 1000 | CC(C)N1CCc2ccc(-c3cc(-c4ccc5c(c4)CCNC5=O)c(N)nc3F)cc2C1 [I-335, 6-(2-amino-6-fluoro-5-(2-isopropyl-1,2,3,4-tetrahydroisoquinolin-7-yl)pyridin-3-yl)-3,4-dihydroisoquinolin-1(2H)-one]
0.1 to 10 | > 1000 | CN1CCN(c2ccc(-c3cc(-c4cc5c(cc4F)C(=O)NCC5)c(N)nc3F)cc2)CC1 [I-246, 6-(2-amino-6-fluoro-5-(4-(4-methylpiperazin-1-yl)phenyl)pyridin-3-yl)-7-fluoro-3,4-dihydroisoquinolin-1(2H)-one]
0.1 to 10 | > 1000 | CC(C)N1CCC(Oc2ccc(-c3cc(-c4ccc5c(c4)CCNC5=O)c(N)nc3F)cc2C#N)CC1 [I-224, 5-(6-amino-2-fluoro-5-(1-oxo-1,2,3,4-tetrahydroisoquinolin-6-yl)pyridin-3-yl)-2-((1-isopropylpiperidin-4-yl)oxy)benzonitrile]
11 to 100 | > 1000 | CN1CCN(C(=O)c2ccc(-c3cc(-c4ccc5c(c4)CCNC5=O)c(N)nc3F)cc2)CC1 [I-259, 6-(2-amino-6-fluoro-5-(4-(4-methylpiperazine-1-carbonyl)phenyl)pyridin-3-yl)-3,4-dihydroisoquinolin-1(2H)-one]
11 to 100 | > 1000 | Nc1nc(F)c(-c2ccc(S(=O)(=O)C3CNC3)cc2)cc1-c1ccc2c(c1)CCNC2=O [I-84, 6-(2-amino-5-(4-(azetidin-3-ylsulfonyl)phenyl)-6-fluoropyridin-3-yl)-3,4-dihydroisoquinolin-1(2H)-one]
0.1 to 10 | 101 to 1000 | COCCN1CCC(c2ccc(-c3cc(-c4cc(F)c5c(c4)CCNC5=O)c(N)nc3F)cc2)CC1 [I-350, 6-(2-amino-6-fluoro-5-(4-(1-(2-methoxyethyl)piperidin-4-yl)phenyl)pyridin-3-yl)-8-fluoro-3,4-dihydroisoquinolin-1(2H)-one]
11 to 100 | > 1000 | N#Cc1cc(-c2cc(-c3cc4c(cc3F)C(=O)NCC4)c(N)nc2F)ccc1OC1CCN(CC(F)(F)F)CC1 [I-293, 5-(6-amino-2-fluoro-5-(7-fluoro-1-oxo-1,2,3,4-tetrahydroisoquinolin-6-yl)pyridin-3-yl)-2-((1-(2,2,2-trifluoroethyl)piperidin-4-yl)oxy)benzonitrile]
11 to 100 | > 1000 | Cc1nc2cc(-c3cc(-c4ccc(N5CCN(CC6CC6)CC5)cc4)c(F)nc3N)ccc2c(=O)[nH]1 [I-411, 7-(2-amino-5-(4-(4-(cyclopropylmethyl)piper-azin-1-yl)phenyl)-6-fluoropyridin-3-yl)-2-methylquinazolin-4(3H)-one]
0.1 to 10 | > 1000 | COCCN1CCN(c2ccc(-c3cc(-c4cc5c(cc4F)C(=O)NCC5)c(N)nc3F)cc2C(F)(F)F)CC1 [I-264, 6-(2-amino-6-fluoro-5-(4-(4-(2-methoxyethyl)piperazin-1-yl)-3-(trifluoromethyl)phenyl)pyridin-3-yl)-7-fluoro-3,4-dihydroisoquinolin-1(2H)-one]
0.1 to 10 | > 1000 | CN1CCN(c2ccc(-c3cc(-c4ccc5c(c4)CCNC5=O)c(N)nc3F)c(Cl)c2)CC1 [I-61, 6-(2-amino-5-(2-chloro-4-(4-methylpiperazin-1-yl)phenyl)-6-fluoropyridin-3-yl)-3,4-dihydroisoquinolin-1(2H)-one]
0.1 to 10 | > 1000 | CC1CN(c2ccc(-c3cc(-c4ccc5c(c4)CCNC5=O)c(N)nc3F)cc2)CCN1C (centres unmarked) [I-88, 6-(2-amino-5-(4-(3,4-dimethylpiperazin-1-yl)phenyl)-6-fluoropyridin-3-yl)-3,4-dihydroisoquinolin-1(2H)-one]
11 to 100 | > 1000 | CC(C)[C@H]1CN(c2ccc(-c3cnc(N)c(-c4ccc5c(c4)CCNC5=O)c3F)cc2)CCO1 [I-5, (S)-6-(2-amino-4-fluoro-5-(4-(2-isopropylmorpholino)phenyl)pyridin-3-yl)-3,4-dihydroisoquinolin-1(2H)-one]
0.1 to 10 | > 1000 | COc1cc(OC2CCN(C(C)=O)CC2)ccc1-c1cc(-c2ccc3c(c2)CCNC3=O)c(N)nc1F [I-304, 6-(5-(4-((1-acetylpiperidin-4-yl)oxy)-2-methoxyphenyl)-2-amino-6-fluoropyridin-3-yl)-3,4-dihydroisoquinolin-1(2H)-one]
0.1 to 10 | > 1000 | Nc1nc(F)c(-c2ccc(C3CCN(CC4CC4)CC3)cc2)cc1-c1cc2c(cc1F)C(=O)NCC2 [I-242, 6-(2-amino-5-(4-(1-(cyclopropylmethyl)piperidin-4-yl)phenyl)-6-fluoropyridin-3-yl)-7-fluoro-3,4-dihydroisoquinolin-1(2H)-one]

SMILES | IC50 [1] [nM] | IC50 (Lck (h)) [nM]
Nc1nc(F)c(-c2ccc(C3CCN(CC(F)F)CC3)cc2)cc1-c1cc2c(cc1F)C(=O)NCC2 [I-256, 6-(2-amino-5-(4-(1-(2,2-difluoroethyl)piperidin-4-yl)phenyl)-6-fluoropyridin-3-yl)-7-fluoro-3,4-dihydroisoquinolin-1(2H)-one] | 0.1 to 10 | > 1000
